The values that follow come from paper PMC9782500 (International Journal of Molecular Sciences, 2022).

Some results are limits rather than exact numbers.

Usually EC50 stands for the concentration that produces a half-maximal response. Read a low EC50 as a more potent agent.

The test has as its target T1, RXRα (Homo sapiens, UniProt P19793).
T1 sequence (P19793 227-458 limits assumed): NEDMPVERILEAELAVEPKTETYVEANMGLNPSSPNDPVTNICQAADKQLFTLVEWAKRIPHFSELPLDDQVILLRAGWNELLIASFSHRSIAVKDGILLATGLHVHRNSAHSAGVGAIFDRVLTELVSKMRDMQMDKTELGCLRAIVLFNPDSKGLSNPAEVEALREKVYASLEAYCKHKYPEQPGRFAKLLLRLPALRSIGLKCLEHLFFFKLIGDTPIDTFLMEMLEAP
Nature of the test: RXRα activation EC50 (Luc and GFP UAS/Gal4 assays).

Experimental: UAS/Gal4 assay. Bone marrow cells from UAS-GFP mice [79] were transduced with retroviruses MSCV-Gal4 (DNA binding domain, DBD)—RXRα (ligand binding domain, LBD)—IRES—mCherry. […] Cells were treated, and after 48 h, GFP was measured by flow cytometry.
Luciferase detection. HEK293T cells were transfected using Lipofectamine 2000 (Invitrogen) [80]. Six hours after transfection, the cells were collected and plated into a 48-well plate in 1% BSA media in biological triplicates and treated with compounds. After 40 h incubation, the cells were harvested and assayed for luciferase (Luc Assay System with Reporter Lysis Buffer, Promega) in a Beckman Coulter LD400 plate reader.

Consider `CCN(c1ccc(C(=O)O)cn1)c1cc2c(cc1C)C(C)(C)OCC2(C)C` [Compound 38], for which the EC50 stood at 23.7 nM.
In turn, `C=CCN(c1ccc(C(=O)O)cc1)c1cc2c(cc1C)C(C)(C)CCC2(C)C` [Compound 34] gave an EC50 of 11.5 nM.
`C=CCN(c1ccc2c(c1)C(C)(C)CCC2(C)C)c1ncc(C(=O)O)cn1` [Compound 35] returned an EC50 of 0.54 nM.
`CCN(c1ncc(C(=O)O)cn1)c1cc2c(cc1C)C(C)(C)OCC2(C)C` [Compound 39] came in with an EC50 of 152 nM.
With `Cc1cc2c(cc1N(C)c1ccc(C(=O)O)cn1)C(C)(C)CCC2(C)C` [Compound 31] the figure was 5.4 nM; with `CCN(c1ccc(C(=O)O)cc1)c1cc2c(cc1C)C(C)(C)OCC2(C)C` [Compound 43], 23.1 nM; with `CN(c1ccc2c(c1)C(C)(C)CCC2(C)C)c1ncc(C(=O)O)cn1` [Compound 25, reference compound], 17.8 nM.
With `Cc1cc2c(cc1N(C)c1ccc(C(=O)O)cn1)C(C)(C)COC2(C)C` [Compound 36] the figure was 75 nM.
For `C=C(c1ccc(C(=O)O)cc1)c1cc2c(cc1C)C(C)(C)OCC2(C)C` [Compound 26], the EC50 amounted to 51 nM.
With `C=CCN(c1ccc(C(=O)O)cc1)c1cc2c(cc1C)C(C)(C)OCC2(C)C` [Compound 44] the figure was 116 nM; with `C=CCN(c1ncc(C(=O)O)cn1)c1cc2c(cc1C)C(C)(C)OCC2(C)C` [Compound 41], 143 nM.
Take `Cc1cc2c(cc1-c1cc(/C=C/C(=O)O)ccc1C(F)(F)F)C(C)(C)COC2(C)C` [Compound 28]: the EC50 was 59.2 nM.
In turn, `Cc1cc2c(cc1N(C)c1ncc(C(=O)O)cn1)C(C)(C)COC2(C)C` [Compound 37] gave an EC50 of 405 nM.
For `Cc1cc2c(cc1N(C)c1ccc(C(=O)O)cc1)C(C)(C)CCC2(C)C` [Compound 23, reference compound], the EC50 is 8.6 nM.
Take `C=CCN(c1ccc(C(=O)O)cn1)c1cc2c(cc1C)C(C)(C)CCC2(C)C` [Compound 32]: the concentration giving a half-maximal response (EC50) was determined as 1.8 nM.
As for `C=CCN(c1ncc(C(=O)O)cn1)c1cc2c(cc1C)C(C)(C)CCC2(C)C` [Compound 33], the EC50 was 5.3 nM.
With `Cc1cc2c(cc1-c1cc(/C=C/C(=O)O)ccc1O)C(C)(C)COC2(C)C` [Compound 29], the EC50 was determined as 3.9 nM.
`Cc1ccc(/C=C/C(=O)O)cc1-c1cc2c(cc1C)C(C)(C)OCC2(C)C` [Compound 27] had an EC50 of 65.3 nM.
`Cc1cc2c(cc1N(C)c1ncc(C(=O)O)cn1)C(C)(C)CCC2(C)C` [Compound 24, reference compound] showed an EC50 of 6.2 nM.
On to `C=CCN(c1ccc(C(=O)O)cn1)c1cc2c(cc1C)C(C)(C)OCC2(C)C` [Compound 40], for which a half-maximal effect (EC50) was put at 10.7 nM.
For the compound `Cc1cc2c(cc1-c1coc3cc(C(=O)O)ccc13)C(C)(C)COC2(C)C` [Compound 30], the EC50 is over 1000 nM.
The same measure for `Cc1cc2c(cc1N(C)c1ccc(C(=O)O)cc1)C(C)(C)COC2(C)C` [Compound 42]: 87.7 nM.
